Patent US8686115B2, “Compositions and methods for quantitatively monitoring lipids” (The Board of Trustees of the University of Illinois, priority 2009, dated 2014)

Assays:
[1] = target: T1, DAN-eENTH: epsin 1 ENTH domain variant M10C/C96A/S4W, SEQ ID NO: 2, labeled with DAN at C10 (Homo sapiens, UniProt Q9Y6I3, C96A/M10C/S4W); experiment: SPR: effect of IP3 on DAN-eENTH binding to PtdIns(4,5)P2-containing vesicles; details: 5 μM IP3; 50 nM DAN-eENTH; POPC/POPS/PtdIns(4,5)P2 (77:20:3) LUVs; 5 min incubation; pH 7.4
T1 construct: The Epsin1 ENTH domain (1-158 amino acids) was subcloned; GST (C, cleaved yes); made in house; host or cells: E. coli BL21 RIL codon plus
T1 sequence (Q9Y6I3 1-158 S4W/M10C/C96A): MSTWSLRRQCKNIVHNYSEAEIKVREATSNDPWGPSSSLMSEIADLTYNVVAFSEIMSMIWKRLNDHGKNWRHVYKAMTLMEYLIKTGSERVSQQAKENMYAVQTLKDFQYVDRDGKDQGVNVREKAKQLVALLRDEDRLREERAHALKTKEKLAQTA
Description: (§1) With respect to FIG. 1, an L1 sensor chip was coated with POPC/POPS/PtdIns(4,5)P2 (77:20:3) LUVs. The proteins were incubated with a given concentration of IP3 for 5 minutes before injecting into the SPR instrument. Kinetic SPR measurements were performed in 20 mM Tris-HCL, pH 7.4, containing 0.16 KCl. […] A lower concentration of DAN-eENTH was used than that of PLCδ PH because the former has much higher affinity that the latter.

[2] = test system: PLCδ PH domain; experiment: SPR: inhibition by IP3 of PLCδ PH domain binding to PtdIns(4,5)P2-containing vesicles; details: 5 μM IP3; 250 nM PLCδ PH domain; POPC/POPS/PtdIns(4,5)P2 (77:20:3) LUVs; 5 min incubation; pH 7.4
Description: as §1

[3] = test system: PtdIns(4,5)P2 in the plasma membrane; experiment: Effect of ionomycin on plasma membrane PtdIns(4,5)P2 in cells microinjected with DAN-eENTH; type: cell-based; details: majority of DAN-eENTH released to the cytosol
Description: [DAN-eENTH] was adjusted to give strong enough FB and FG signals for robust data analysis. […] Also, when [PtdIns(4,5)P2] in the plasma membrane was lowered by ionomycin treatment, a majority of DAN-eENTH was released to the cytosol.
NIH 3T3 cells were seeded into 8-well plates and grown at 37° C. in a humidified atmosphere of 95% air and 5% CO2 in Dulbecco's modified Eagle's medium (DMEM) (Invitrogen) supplemented with 10% (v/v) fatal bovine serum (Invitrogen). DAN-eENTH was delivered into the cells by microinjection using the Eppendorf InjectMan NI 2 system. All microscopy measurements and data analysis were performed as described above. For cell measurements, the minimal FB value was taken from the cytosol where PtdIns(4,5)P2 is absent and (FB)max was taken after the excess amount of exogenous PtdIns(4,5)P2 was delivered to the cell by either microinjection or as vesicle formulation. […] Thus, the cellular [PtdIns(4,5)P2] was determined from the observed (FB/FG) values using the in vitro calibration curve determined using POPC/POPS/PtdIns(4,5)P2 GUVs.

effect on binding to PtdIns(4,5)P2-containing vesicles [1]	inhibition of binding to PtdIns(4,5)P2-containing vesicles [2] [%]	Compound	[PtdIns(4,5)P2] in the plasma membrane upon ionomycin treatment [3]
minimal effect	> 70	O=P(O)(O)O[C@@H]1[C@H](O)[C@H](O)[C@@H](OP(=O)(O)O)[C@H](OP(=O)(O)O)[C@H]1O [IP3, inositol-(1,4,5)-triphosphate]	
		C[C@H](CCC(=O)O)C[C@H](C)C[C@H](C)C(=O)/C=C(\O)[C@H](C)C[C@H](C)C/C=C/[C@@H](C)[C@@H](O)[C@@H](C)[C@@H](O)C[C@@H]1CC[C@@](C)([C@H]2CC[C@@](C)([C@@H](C)O)O2)O1 [ionomycin]	lowered
